Paper PMC10191403, “The C-terminal 32-mer fragment of hemoglobin alpha is an amyloidogenic peptide with antimicrobial properties” (Cellular and Molecular Life Sciences: CMLS, 2023)
Ends that are not written are not given here.

What was measured:
[1] = system: THP-1-derived macrophages; assay: Phagocytosis of E. coli-GFP by THP-1-derived macrophages; assay type: cell-based, human; settings: E. coli-GFP pre-incubated with 1 mg/ml fibrils, 3 h on cells; CytD 2 µg/ml pre-treatment 30 min; confocal microscopy
[2] = system: HSV-2; assay type: cell-based; settings: serial dilutions of peptides added to ELVIS cells, infected 1 h later with HSV-2; lacZ enzyme activity one day post-infection; ±SD; one (inactive) to three (active) experiments in triplicates
[3] = Thioflavin T (ThT) assay of fibril formation; assay type: physicochemical; settings: formation of ThT positive aggregates

Row | Molecule | uptake of E. coli-GFP by macrophages [1] | IC50 (antiviral activity, HSV-2) [2] [µg/mL] | ThT signal (+/-) [3]
1 | C=C1[C@@H](C)[C@H]2[C@H](Cc3ccccc3)NC(=O)[C@]23[C@H](OC(C)=O)/C=C/[C@@](C)(O)C(=O)[C@@H](C)C/C=C/[C@H]3[C@@H]1O [CytD, Cytochalasin D] | prevented the uptake of any bacteria |  | 
2 | AAHLPAEFTPAVHASLDKFLA [HBA(111–131)] |  | > 130 | -
3 | ASVSTVL [HBA 131-137] |  | > 130 | +
4 | KFLASVST [HBA 128-135] |  | > 130 | -
5 | LASVSTVL [HBA 130-137] |  | > 130 | +
6 | SVSTVL [HBA 132-137] |  | > 130 | -
7 | SVSTVLTSKYR [HBA 132-142] |  | > 130 | -
